Our source for the EC50 values is ChEMBL document CHEMBL5726175, “sGC stimulators” (2019).

pEC50: −log10 of the molar value.

A short description of the assay: sGC-HEK-cGMP Assay: Human embryonic kidney cells (HEK293), endogenously expressing soluble guanylate cyclase (sGC), were used to evaluate the activity of test compounds. Compounds stimulating the sGC enzyme should cause an increase in the intracellular concentration of cGMP. HEK 293 cells were seeded in Dulbecco's Modification of Eagle's Medium supplemented with fetal bovine serum (10% final) and penicillin (100 U/mL)/streptomycin (100 μg/mL) in a 50 μL volume at a density of 1.5×10^4 cells/well in a poly-D-lysine coated 384 well flat bottom plate. Cells were incubated overnight at 37° C. in a humidified chamber with 5% CO2. Medium was aspirated and cells were washed with 1× Hank's Buffered Saline Salt Solution (50 μL). Cells were then incubated for 15 minutes at 37° C. with 50 μL of a 0.5 mM 3-isobutyl-1-methylxanthine (IBMX) solution. Test article and Diethylenetriamine NONOate (DETA-NONOate) solutions (x μM concentration for test article solution and 10 μM concentration for DETA-NONOate solution; wherein x is one of the following concentrations: 0.029 nM to 30000 nM). were then added to the assay mixture and the resulting mixture incubated at 37° C. for 20 minutes. After the 20 minute incubation, the assay mixture was aspirated and 10% acetic acid containing 150 ng/mL+3-cGMP (internal standard for LCMS) (50 μL) was added to the cells. The plate was incubated at 4° C. for 30 minutes in the acetic acid solution to stop the reaction and lyse the cells. The plates were then centrifuged at 1,000 g for 3 minutes at 4° C. and the supernatant transferred to a clean reaction plate for LCMS analysis.cGMP concentrations were determined from each sample using the LCMS conditions below (Table 5) and calculated standard curve. The standard curve was prepared in 10% acetic acid with 150 ng/mL+3cGMP (isotopically labelled cGMP with a weight 3 units higher than wild type) with the following final concentrations of cGMP in ng/mL: 1, 5, 10, 50, 100, 250, 500, 1000, 2000. Format: cell-based.
Consider `O=COC1CNCCN1c1nc(-c2cc(-c3ccon3)n(Cc3ccccc3F)n2)ncc1F` (centres undefined), for which the pEC50 was below 6.00.

For `O=COC1c2[nH]cnc2CCN1c1nc(-c2cc(-c3ccon3)n(Cc3ccccc3F)n2)ncc1F` (centres undefined), the pEC50 was below 6.00.

Take `COc1ccc2c(c1)CCN(c1nc(-c3cc(-c4ccon4)n(Cc4ccccc4F)n3)ncc1F)C2OC=O` (centres undefined): the pEC50 was above 7.00.

`CC(=O)c1cc(-c2ncc(F)c(N3CCC[C@H](C)[C@@H]3OC=O)n2)nn1Cc1ccccc1F`: the EC50 entry was “in the range around 0.55 µM”.

With `COC(=O)N1CCN(c2nc(-c3cc(-c4ccon4)n(Cc4ccccc4F)n3)ncc2F)C(OC=O)C1` (centres undefined), the pEC50 was below 6.00.

Consider `O=COC1c2ccc(O)cc2CCN1c1nc(-c2cc(-c3ccon3)n(Cc3ccccc3F)n2)ncc1F` (centres undefined), for which the pEC50 is below 6.00.

Turning to `C[C@H]1CCCN(c2nc(-c3cc(-c4ccon4)n(Cc4cccc(F)c4F)n3)ncc2F)[C@H]1OC=O`, the pEC50 was above 7.00.

Consider `Fc1ccccc1Cn1nc(-c2ncc(F)c(N3CCCC4CC43)n2)cc1-c1ccon1` (centres undefined), for which the EC50 result was “in the range around 0.55 µM”.

For the compound `O=CO[C@H](Cc1ccc(O)cc1)Nc1nc(-c2cc(-c3ccon3)n(Cc3ccccc3F)n2)ncc1F`, the pEC50 was below 6.00.
